Tests used:
Assay type in all cases: in vivo
[1] = tested on: Beet Armyworm (Spodoptera exigua, LAPHEG); experiment: Bioassay on Beet Armyworm (BAW), 128-well diet tray assay; conditions: 168 h, 50 μg/cm^2 on artificial diet, second instar larvae, 25° C., five to seven days, average of eight wells, read-out: BAW % Control (or Mortality) rating
In short: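 Diet tray, 8 wells/compound; 50 μg/cm^2 applied to diet surface (90:10 acetone-water), dried. 1–5 L2 larvae/well; 25° C., 14:10 L:D, 5–7 d. Read-out: % mortality, mean of 8 wells.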

[2] = tested on: Cabbage Looper (Trichoplusia ni, TRIPNI); experiment: Bioassay on Cabbage Looper (CL), 128-well diet tray assay; conditions: 168 h, 50 μg/cm^2 on artificial diet, second instar larvae, 25° C., five to seven days, average of eight wells, read-out: CL % Control (or Mortality) rating
In short: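 Test molecule is dissolved in 90:10 acetone-water and applied at 50 μg/cm^2 onto artificial diet, then dried. One to five second-instar larvae go into each of eight wells. Trays, sealed but vented, stay at 25° C., 14:10 light-dark, five to seven days, after which mortality is averaged.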

[3] = tested on: Yellow Fever Mosquito (Aedes aegypti, AEDSAE); conditions: about 1 day-old larvae, 96-well plate from 4000 ppm DMSO master, 3 days at room temperature
Method: Certain molecules disclosed in this document were tested against YFM using procedures described in the following paragraph. In the reporting of the results, the “GPA & YFM Rating Table” was used (See Table Section).
Master plates containing 400 μg of a molecule dissolved in 100 μL of dimethyl sulfoxide (DMSO) (equivalent to a 4000 ppm solution) are used. A master plate of assembled molecules contains 15 μL per well. To this plate, 135 μL of a 90:10 water/acetone mixture is added to each well. A robot is programmed to dispense 15 μL aspirations from the master plate into an empty 96-well shallow plate (“daughter” plate). There are 6 reps (“daughter” plates) created per master. The created “daughter” plates are then immediately infested with YFM larvae.
The day before plates are to be treated, mosquito eggs are placed in Millipore water containing liver powder to begin hatching (4 g. into 400 mL). After the “daughter” plates are created using the robot, they are infested with 220 μL of the liver powder/larval mosquito mixture (about 1 day-old larvae). After plates are infested with mosquito larvae, a non-evaporative lid is used to cover the plate to reduce drying. Plates are held at room temperature for 3 days prior to grading. After 3 days, each well is observed and scored based on mortality. The results are indicated in the table entitled “Table ABC: Biological Results” (See Table Section).

SMILES	mortality at 50 µg/cm2 [1]	mortality at 50 µg/cm2 [2]	YFM % Control (or Mortality) rating [3]
O=C(NC1CC(F)(F)C1)c1cc(NC(=O)[C@@H]2[C@@H](c3cc(Cl)cc(Cl)c3)C2(Cl)Cl)ccc1Cl [Molecule F74, 2-Chloro-5-((1S,3S)-2,2-dichloro-3-(3,5-dichlorophenyl)cyclopropane-1-carboxamido)-N-(3,3-difluorocyclobutyl)benzamide]	50 to 100%	50 to 100%	A (80-100)
O=C(NC1CCS(=O)(=O)C1)c1cc(NC(=O)[C@H]2[C@H](c3cc(Cl)c(Cl)c(Cl)c3)C2(Cl)Cl)ccc1Cl (relative stereo) [PF19, trans-2-Chloro-5-(2,2-dichloro-3-(3,4,5-trichlorophenyl)cyclopropane-1-carboxamido)-N-(1,1-dioxidotetrahydrothiophen-3-yl)benzamide]	50 to 100%	50 to 100%	B (More than 0-Less than 80)
O=C(NC1CCC1)c1cc(NC(=O)[C@H]2[C@H](c3cc(Cl)cc(Cl)c3)C2(Cl)Cl)ccc1Cl (relative stereo) [Molecule F40, trans-2-Chloro-N-cyclobutyl-5-(2,2-dichloro-3-(3,5-dichlorophenyl)cyclopropanecarboxamido)benzamide]	50 to 100%	50 to 100%	A (80-100)
COc1c(F)cc([C@H]2[C@H](C(=O)Nc3ccc(Cl)c(C(=O)NC4(C#N)CC4)c3)C2(Cl)Cl)cc1Br (relative stereo) [Molecule F84, trans-5-(3-(3-Bromo-5-fluoro-4-methoxyphenyl)-2,2-dichlorocyclopropane-1-carboxamido)-2-chloro-N-(1-cyanocyclopropyl)benzamide]	50 to 100%	50 to 100%	A (80-100)
CCN1OC[C@@H](NC(=O)c2cc(NC(=O)C3C(c4cc(Cl)cc(Cl)c4)C3(Cl)Cl)ccc2Cl)C1=O (stereo partly drawn) [PF45, trans-2-Chloro-5-(2,2-dichloro-3-(3,5-dichlorophenyl)cyclopropane-1-carbox-amido)-N—((R)-2-ethyl-3-oxoisoxazolidin-4-yl)benzamide]	50 to 100%	50 to 100%	A (80-100)
N#CC1(NC(=O)c2cc(NC(=O)[C@H]3[C@H](c4cc(F)cc(Cl)c4)C3(Cl)Cl)ccc2Cl)CC1 (relative stereo) [PF1, trans-2-Chloro-N-(1-cyanocyclopropyl)-5-(2,2-dichloro-3-(3-chloro-5-fluorophenyl)cyclopropane-1-carboxamido)benzamide]	50 to 100%	50 to 100%	A (80-100)
N#CC1(NC(=O)c2cc(NC(=O)[C@@H]3[C@@H](c4cc(Cl)cc(Cl)c4)C3(Cl)Cl)ccc2Cl)CC1 [Molecule F76, 2-Chloro-N-(1-cyanocyclopropyl)-5-((1S,3S)-2,2-dichloro-3-(3,5-dichloro-phenyl)cyclopropanecarboxamido)benzamide]	50 to 100%	50 to 100%	A (80-100)
O=C(NN1CCOC1=O)c1cc(NC(=O)C2C(c3cc(Cl)cc(Cl)c3)C2(Cl)Cl)ccc1Cl (stereo not drawn) [PF34, trans-2-Chloro-5-(2,2-dichloro-3-(3,5-dichlorophenyl)cyclopropanecarbox-amido)-N-(2-oxooxazolidin-3-yl)benzamide]	50 to 100%	50 to 100%	A (80-100)
O=C(NC1CCC(F)(F)CC1)c1cc(NC(=O)[C@H]2[C@H](c3cc(Cl)c(Cl)c(Cl)c3)C2(Cl)Cl)ccc1Cl (relative stereo) [Molecule F45, trans-2-Chloro-5-(2,2-dichloro-3-(3,4,5-trichlorophenyl)cyclopropanecarboxamido)-N-(4,4-difluorocyclohexyl)benzamide]	50 to 100%	50 to 100%	A (80-100)
O=C(NC1CCC(F)(F)CC1)c1cc(NC(=O)[C@H]2[C@H](c3ccc(Cl)c(Cl)c3)C2(Cl)Cl)ccc1Cl (relative stereo) [Molecule F44, trans-2-Chloro-5-(2,2-dichloro-3-(3,4-dichlorophenyl)cyclopropanecarboxamido)-N-(4,4-difluorocyclohexyl)benzamide]	50 to 100%	50 to 100%	A (80-100)
N#CC1(NC(=O)c2cc(NC(=O)[C@H]3[C@H](c4ccc(C(F)F)cc4)C3(Cl)Cl)ccc2Cl)CC1 (relative stereo) [Molecule F92, trans-2-Chloro-N-(1-cyanocyclopropyl)-5-(2,2-dichloro-3-(4-(difluoromethyl)-phenyl)cyclopropane-1-carboxamido)benzamide]	50 to 100%	50 to 100%	A (80-100)
CN(C(=O)c1cc(NC(=O)[C@H]2[C@H](c3cc(Cl)c(Cl)c(Cl)c3)C2(Cl)Cl)ccc1Cl)C1(C#N)CC1 (relative stereo) [PF21, trans-2-Chloro-N-(1-cyanocyclopropyl)-5-(2,2-dichloro-3-(3,4,5-trichloro-phenyl)cyclopropane-1-carboxamido)-N-methylbenzamide]	50 to 100%	50 to 100%	B (More than 0-Less than 80)
CC(C)(C)OC(=O)N1CC(NC(=O)c2cc(NC(=O)[C@H]3[C@H](c4cc(Cl)cc(Cl)c4)C3(Cl)Cl)ccc2Cl)C1 (relative stereo) [Molecule F54, trans-tert-butyl 3-(2-chloro-5-(2,2-dichloro-3-(3,5-dichlorophenyl)cyclopropanecarboxamido)-benzamido)azetidine-1-carboxylate]	50 to 100%	50 to 100%	D (No activity noticed in this bioassay)
N#CC1(NC(=O)c2cc(NC(=O)[C@H]3[C@H](c4ccc(C(F)F)c(F)c4)C3(Cl)Cl)ccc2Cl)CC1 (relative stereo) [Molecule F90, trans-2-Chloro-N-(1-cyanocyclopropyl)-5-(2,2-dichloro-3-(4-(difluoromethyl)-3-fluorophenyl)cyclopropane-1-carboxamido)benzamide]	50 to 100%	50 to 100%	A (80-100)
O=C(NC1CCC(F)(F)CC1)c1cc(NC(=O)[C@H]2[C@H](c3cc(Cl)cc(Cl)c3)C2(Cl)Cl)ccc1Cl (relative stereo) [Molecule F43, trans-2-Chloro-5-(2,2-dichloro-3-(3,5-dichlorophenyl)cyclopropanecarboxamido)-N-(4,4-difluorocyclohexyl)benzamide]	50 to 100%	50 to 100%	A (80-100)
O=C(NC1CCOC1=O)c1cc(NC(=O)C2C(c3cc(Cl)cc(Cl)c3)C2(Cl)Cl)ccc1Cl (stereo not drawn) [PF37, trans-2-Chloro-5-(2,2-dichloro-3-(3,5-dichlorophenyl)cyclopropane-1-carbox-amido)-N-(2-oxotetrahydrofuran-3-yl)benzamide]	50 to 100%	50 to 100%	A (80-100)
N#CC1CCC(NC(=O)c2cc(NC(=O)[C@H]3[C@H](c4cc(Cl)cc(Cl)c4)C3(Cl)Cl)ccc2Cl)C1 (relative stereo) [Molecule F35, trans-2-Chloro-N-(3-cyanocyclopentyl)-5-(2,2-dichloro-3-(3,5-dichlorophenyl)cyclopropanecarboxamido)benzamide]	50 to 100%	50 to 100%	A (80-100)
O=C(NC1COC1)c1cc(NC(=O)[C@H]2[C@H](c3cc(Cl)cc(Cl)c3)C2(Cl)Cl)ccc1Cl (relative stereo) [Molecule F53, trans-2-Chloro-5-(2,2-dichloro-3-(3,5-dichlorophenyl)cyclopropanecarboxamido)-N-(oxetan-3-yl)benzamide]	50 to 100%	50 to 100%	A (80-100)
C[C@]1(c2cc(Cl)cc(Cl)c2)[C@H](C(=O)Nc2ccc(Cl)c(C(=O)NC3CC(F)(F)C3)c2)C1(Cl)Cl (relative stereo) [Molecule F61, trans-2-chloro-5-(2,2-dichloro-3-(3,5-dichloro-phenyl)-3-methylcyclopropane-1-carboxamido)-N-(3,3-difluorocyclobutyl)-benzamide]	50 to 100%	50 to 100%	A (80-100)

— patent US9795139B2, “Molecules having pesticidal utility, and intermediates, compositions, and processes, related thereto” (priority 2015, dated 2017)
